# Results: patent US6699862B1, “Indolyl-2-phenyl bisamidines useful as antiproliferative agents” (Pfizer Inc., priority 1999, dated 2004)
row,Structure (SMILES),melting point
1,CCSCCOC(=O)Cc1c(-c2ccc(C(=N)N)cc2)[nH]c2cc(C(=N)N)ccc12.Cl.Cl,> 250 °C
2,Cl.Cl.N=C(N)c1ccc(-c2[nH]c3cc(C(=N)N)ccc3c2CC(=O)OCCCCCO)cc1,> 250 °C
3,Cl.Cl.O=CCc1c(-c2ccc(C3=NCCN3)cc2)[nH]c2cc(C3=NCCN3)ccc12,> 300 °C
4,CC(C)OC(=O)C(C)Oc1cc(C(=N)N)ccc1-c1cc2ccc(C(=N)N)cc2[nH]1.Cl.Cl (centres unmarked),240 °C
5,CC(C(=O)O)c1c(-c2ccc(C(=N)N)cc2)[nH]c2cc(C(=N)N)ccc12.Cl.Cl (centres unmarked),> 260 °C
6,Cl.Cl.N=C(N)c1ccc(-c2[nH]c3cc(C(=N)N)ccc3c2CCNCC(=O)O)cc1,> 250 °C
7,CCOC(=O)Cc1c(-c2ccc(C3=NCCN3)cc2)[nH]c2cc(C3=NCCN3)ccc12.Cl.Cl,> 300 °C
8,Cl.Cl.O=C(O)Cc1c(-c2ccc(C3=NCCN3)cc2)[nH]c2cc(C3=NCCN3)ccc12,> 300 °C
9,Cl.Cl.N=C(N)c1ccc(-c2[nH]c3cc(C(=N)N)ccc3c2CC(=O)O)cc1,> 250 °C
10,Cl.Cl.N#CCCOC(=O)Cc1c(-c2ccc(C(=N)N)cc2)[nH]c2cc(C(=N)N)ccc12,> 250 °C
11,COCCOC(=O)Cc1c(-c2ccc(C(=N)N)cc2)[nH]c2cc(C(=N)N)ccc12.Cl.Cl,> 250 °C
12,COC(=O)c1cc(Cl)ccc1Cc1c(-c2ccc(C(=N)N)cc2)[nH]c2cc(C(=N)N)ccc12.Cl.Cl,> 250 °C
13,COC(=O)C(CCCN)NC(=O)Cc1c(-c2ccc(C(=N)N)cc2)[nH]c2cc(C(=N)N)ccc12.Cl.Cl (centres unmarked),> 250 °C
14,COc1cc(C(=N)N)ccc1-c1cc2ccc(C(=N)N)cc2[nH]1.Cl.Cl,> 250 °C
15,COC(=O)c1ccc(Cc2c(-c3ccc(C(=N)N)cc3)[nH]c3cc(C(=N)N)ccc23)cc1.Cl.Cl,> 250 °C
16,CCCCOC(=O)Cc1c(-c2ccc(C(=N)N)cc2)[nH]c2cc(C(=N)N)ccc12.Cl.Cl,> 270 °C
17,Cl.Cl.Fc1cc2cc(-c3ccc(C4=NCCN4)cc3)[nH]c2cc1C1=NCCN1,> 250 °C
18,Cl.Cl.N=C(N)c1ccc(-c2[nH]c3cc(C(=N)N)ccc3c2CC(=O)OCC(O)CO)cc1 (centres unmarked),> 250 °C
19,COC(=O)C=CCc1c(-c2ccc(C(=N)N)cc2)[nH]c2cc(C(=N)N)ccc12.Cl.Cl,> 250 °C
20,COC(=O)CC(NCCc1c(-c2ccc(C(=N)N)cc2)[nH]c2cc(C(=N)N)ccc12)C(=O)OC.Cl.Cl (centres unmarked),> 250 °C
21,COC(=O)CNCCc1c(-c2ccc(C(=N)N)cc2)[nH]c2cc(C(=N)N)ccc12.Cl.Cl,> 250 °C
22,Cl.Cl.N=C(N)c1ccc(-c2[nH]c3cc(C(=N)N)ccc3c2CC(=O)OCCOCc2ccccc2)cc1,> 250 °C
23,COC(=O)C(CCCCN)NC(=O)Cc1c(-c2ccc(C(=N)N)cc2)[nH]c2cc(C(=N)N)ccc12.Cl.Cl (centres unmarked),> 260 °C
24,COC(=O)CCNCCc1c(-c2ccc(C(=N)N)cc2)[nH]c2cc(C(=N)N)ccc12.Cl.Cl,> 250 °C
25,COC(=O)C(C)NCCc1c(-c2ccc(C(=N)N)cc2)[nH]c2cc(C(=N)N)ccc12.Cl.Cl (centres unmarked),> 250 °C

row,Structure (SMILES),melting point
1,COC(=O)C(NCCc1c(-c2ccc(C(=N)N)cc2)[nH]c2cc(C(=N)N)ccc12)C(C)C.Cl.Cl (centres unmarked),> 250 °C
2,Cl.Cl.N=C(N)c1ccc(-c2[nH]c3cc(C(=N)N)ccc3c2CC(=O)OCCO)cc1,> 250 °C
3,CNC(=N)c1ccc(-c2cc3ccc(C(=N)NC)cc3[nH]2)cc1.Cl.Cl,282 °C
4,CCOC(=O)CC(C)OC(=O)Cc1c(-c2ccc(C(=N)N)cc2)[nH]c2cc(C(=N)N)ccc12.Cl.Cl (centres unmarked),> 250 °C
5,CCCOC(=O)Cc1c(-c2ccc(C(=N)N)cc2)[nH]c2cc(C(=N)N)ccc12.Cl.Cl,> 270 °C
6,COC(=O)C(Cc1ccccc1)NCCc1c(-c2ccc(C(=N)N)cc2)[nH]c2cc(C(=N)N)ccc12.Cl.Cl (centres unmarked),> 250 °C
7,COC(=O)C(CO)NCCc1c(-c2ccc(C(=N)N)cc2)[nH]c2cc(C(=N)N)ccc12.Cl.Cl (centres unmarked),> 250 °C
8,Cl.Cl.N=C(N)c1ccc(-c2[nH]c3cc(C(=N)N)ccc3c2CC(=O)OCc2ccccc2)cc1,> 250 °C
9,COC(=O)Cc1c(-c2ccc(C(=N)N)cc2O)[nH]c2cc(C(=N)N)ccc12.Cl.Cl,> 250 °C
10,COC(=O)c1cccc(Cc2c(-c3ccc(C(=N)N)cc3)[nH]c3cc(C(=N)N)ccc23)c1.Cl.Cl,> 250 °C
11,Cl.Cl.N=C(N)c1ccc(-c2[nH]c3cc(C(=N)N)ccc3c2CC(=O)OCCc2cccs2)cc1,> 250 °C
12,Cl.Cl.N=C(N)c1ccc(-c2cc3ccc(C(=N)N)cc3[nH]2)c(O)c1,> 300 °C
13,Cl.Cl.N=C(N)c1ccc(-c2[nH]c3cc(C(=N)N)ccc3c2CC(=O)OCCOCCO)cc1,> 250 °C
14,Cl.Cl.N=C(N)c1ccc(-c2[nH]c3cc(C(=N)N)ccc3c2CC(O)CO)cc1 (centres unmarked),> 250 °C
15,CCCCS(=O)(=O)CCOC(=O)Cc1c(-c2ccc(C(=N)N)cc2)[nH]c2cc(C(=N)N)ccc12.Cl.Cl,> 250 °C
16,Cl.Cl.N=C(N)c1ccc(-c2[nH]c3cc(C(=N)N)ccc3c2Cc2cccc(OCC(N)=O)c2)cc1,> 250 °C
17,CCOC(=O)CNCCc1c(-c2ccc(C(=N)N)cc2)[nH]c2cc(C(=N)N)ccc12.Cl.Cl,> 250 °C
18,Cl.Cl.N=C(N)c1ccc(-c2[nH]c3cc(C(=N)N)ccc3c2CC(=O)OCC2CCCCO2)cc1 (centres unmarked),> 250 °C
19,COC(=O)C=Cc1ccc(Cc2c(-c3ccc(C(=N)N)cc3)[nH]c3cc(C(=N)N)ccc23)cc1.Cl.Cl,> 250 °C
20,COC(=O)C(CCCNC(=O)OCc1ccccc1)NC(=O)Cc1c(-c2ccc(C(=N)N)cc2)[nH]c2cc(C(=N)N)ccc12.Cl.Cl (centres unmarked),230 to 235 °C
21,Cl.Cl.N=C(N)c1ccc(-c2[nH]c3cc(C(=N)N)ccc3c2NC(=O)CCC(=O)O)cc1,> 250 °C
22,COCCOCCOC(=O)Cc1c(-c2ccc(C(=N)N)cc2)[nH]c2cc(C(=N)N)ccc12.Cl.Cl,> 250 °C
23,Cl.Cl.N=C(N)c1ccc(-c2[nH]c3cc(C(=N)N)ccc3c2CC(=O)NCC(=O)NC(CCC(=O)OCc2ccccc2)C(=O)OCc2ccccc2)cc1 (centres unmarked),207 to 212 °C
24,C=CCOC(=O)Cc1c(-c2ccc(C(=N)N)cc2)[nH]c2cc(C(=N)N)ccc12.Cl.Cl,> 250 °C
25,Cl.Cl.N=C(N)c1ccc(-c2cc3ccc(C(=N)N)cc3[nH]2)c(OCC(O)CO)c1 (centres unmarked),> 320 °C
